Measured values: patent US20240269295A1, “C-MET TARGETED APTAMER DRUG CONJUGATE AND METHOD FOR TREATING TUMOR” (Hangzhou Institute of Medicine, Chinese Academy of Sciences, priority 2023, published 2024)

Key:
[1] = test system: large triple-negative breast cancer PDX model tumors; assay: Experiment against large tumors in vivo (triple-negative breast cancer PDX); set-up: species or system mice; conditions: tumor 400-500 mm^3; tail vein, 20 mg/kg once every seven days, two times
Protocol: Six mice with a tumor size of 400-500 mm^3 in a triple-negative breast cancer PDX model were randomly divided into two groups. In the experiment, the two groups were injected with a clinical first-line chemotherapy drug Docetaxel, and a c-Met targeted aptamer drug conjugate c-Met-ApDC through the tail vein, respectively at a dosage of 20 mg/kg Docetaxel (administrated once every seven days, for two times in total) or 0.36 mg/kg equivalent of MMAE (administrated once every four days, for three times in total). The weights of the mice, the lengths of tumors (a), and the widths of tumors (b) were measured and recorded at each injection. The calculation formula of tumor volume (V) was: V=(a×b^2)/2. The tumor volume exceeding 1,500 mm^3 or the weight loss exceeding 15% was taken as an endpoint of the experiment. The mice were euthanized, and the experiment was terminated. […] On about seven days of administration, the tumor volume in the group administrated with the chemotherapeutic drug began to increase, while the tumor of the group administrated with the reagent of the present invention began to decrease.

[2] = test system: large triple-negative breast cancer PDX model tumors; assay: Experiment against large tumors in vivo after multiple times of administration; set-up: species or system mice; conditions: Docetaxel alone, 20 mg/kg once every seven days, two times
Protocol: Six mice with a tumor size of 400-500 mm^3 in a triple-negative breast cancer PDX model were randomly divided into two groups. In the experiment, the two groups were injected with a clinical first-line chemotherapy drug, Docetaxel and a c-Met targeted aptamer drug conjugate c-Met-ApDC through the tail vein, respectively, at a dosage of 20 mg/kg Docetaxel (administrated once every seven days, for two times in total) or 0.36 mg/kg equivalent of MMAE (administrated once every four days, for three times in total).
The weights of the mice, the lengths of tumors (a), and the widths of tumors (b) were measured and recorded at each injection. The calculation formula of tumor volume (V) was: V=(a×b^2)/2. The tumor volume exceeding 1,500 mm^3 or the weight loss exceeding 15% was taken as an endpoint of the experiment. The mice were euthanized, and the experiment was terminated. In the group administrated with Docetaxel, 0.36 mg/kg equivalent of MMAE was injected into the mice through the tail vein once every four days continuously for three times after the tumor volume exceeded 1,500 mm^3. […] It was almost less than 200 mm^3 after 44 days.

[3] = biological target: T1, c-Met (hepatocyte growth factor receptor) (UniProt P08581 P08581:25-932); assay: SPR; concentrations 100-500 nM; unit μm [sic]
Protocol: (§1) The specific experimental process was as follows: the c-Met protein-bound aptamer CLN0004-52 (sequence SEQ: ID2: […]) reported in the literature was selected and modified with a mercapto group at the 3-terminal and then conjugated with vcMMAE to construct the c-Met targeted aptamer drug conjugate CLN0004-52-MMAE. The affinity of CLN0004-52-MMAE and SL1-MMAE with a c-Met protein was characterized by surface plasmon resonance spectroscopy. The binding forces of two c-Met ApDCs were determined at concentrations of 100, 200, 300, 400, and 500 nM. […] Strong affinity stated that it could bind with c-Met more strongly, enhancing the therapeutic effect.

[4] = biological target: T1, c-Met (hepatocyte growth factor …); assay: SPR; concentrations 100-500 nM
Protocol: as §1

T1 sequence (P08581 25-932, one chain of several): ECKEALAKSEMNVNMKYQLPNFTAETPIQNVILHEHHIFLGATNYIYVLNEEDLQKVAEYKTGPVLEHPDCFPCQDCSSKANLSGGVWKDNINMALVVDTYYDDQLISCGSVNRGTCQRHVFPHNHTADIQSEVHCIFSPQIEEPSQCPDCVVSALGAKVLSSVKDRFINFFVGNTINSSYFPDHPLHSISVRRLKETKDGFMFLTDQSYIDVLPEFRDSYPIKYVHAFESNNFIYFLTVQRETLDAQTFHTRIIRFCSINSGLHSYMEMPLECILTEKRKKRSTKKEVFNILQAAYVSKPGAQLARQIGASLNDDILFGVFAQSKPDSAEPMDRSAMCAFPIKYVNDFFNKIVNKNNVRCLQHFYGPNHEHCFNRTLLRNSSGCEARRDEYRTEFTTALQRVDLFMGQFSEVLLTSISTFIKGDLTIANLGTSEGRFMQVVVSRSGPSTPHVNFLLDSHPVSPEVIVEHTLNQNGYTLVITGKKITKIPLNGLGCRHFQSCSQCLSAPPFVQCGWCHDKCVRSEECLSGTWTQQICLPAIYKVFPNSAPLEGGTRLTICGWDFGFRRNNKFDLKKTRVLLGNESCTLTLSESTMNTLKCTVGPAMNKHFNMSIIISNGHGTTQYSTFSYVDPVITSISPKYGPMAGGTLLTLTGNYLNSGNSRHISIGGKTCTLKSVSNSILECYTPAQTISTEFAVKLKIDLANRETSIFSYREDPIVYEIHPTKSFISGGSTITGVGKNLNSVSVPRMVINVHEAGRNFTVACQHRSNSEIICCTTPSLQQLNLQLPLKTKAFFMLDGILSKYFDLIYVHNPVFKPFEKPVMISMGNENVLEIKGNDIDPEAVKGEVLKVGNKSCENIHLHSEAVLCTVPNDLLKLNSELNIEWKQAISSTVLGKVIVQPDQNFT

Q: For `CC(=O)O[C@@]12CO[C@@H]1C[C@H](O)[C@@]1(C)C(=O)[C@H](O)C3=C(C)[C@@H](OC(=O)[C@H](O)[C@@H](NC(=O)OC(C)(C)C)c4ccccc4)C[C@@](O)([C@@H](OC(=O)c4ccccc4)[C@H]21)C3(C)C` [Docetaxel], which “inhibitory effect on large tumors” value [1] is on record?
A: no apparent inhibitory effect

Q: What about the tumor volume increase [1] of the same molecule?
A: 3 times the volume

Q: And the tumor volume course [2]?
A: gradually increased

B1: CLN0004-52-MMAE (ssDNA)
DNA: GAGTGCGTAATGGTACGATTTGGGAAGTGGCTTGGGGTGGGATTAGTTTTGG
modifications: 3'-thiol conjugated to maleimide vcMMAE
Q: Which Kd [3] does the source give for B1 here?
A: 21.5 µM

B2: SL1-MMAE (c-Met-ApDC) (ssDNA)
DNA: ATCAGGCTGGATGGTAGCTCGGTCGGGGTGGGTGGGTTGGCAAGTCTGAT
modifications: 3'-thiol conjugated to maleimide vcMMAE
Q: For B2, which Kd [4] is on record?
A: 0.0775 µM
